Experimental data: patent publication US20100278897A1, “INTRAOCULAR BIOACTIVE AGENT DELIVERY SYSTEM WITH MOLECULAR PARTITIONING SYSTEM” (ALLERGAN, INC., priority 2009, published 2010)

Experiment: Elimination of Compound A from the eye
Type: in vivo
Details: intraocular

- half-life of elimination from the eye: a few hours
Structure (SMILES): Cc1ccoc1C(=O)Nc1cccc(C#Cc2cncc(C(=O)N=[S@](=O)(CCCN3CCN(CCOCCO)CC3)c3ccccc3)c2)c1 [Compound A]
